One compound from patent US20210101879A1, “AMYLOID PROTEIN-SELECTIVE BACE INHIBITORS (ASBIs) FOR ALZHEIMER?S DISEASE” (The Regents of the University of California, priority 2018, published 2021) can be followed below.

Series [1] deals with p-selectin glycoprotein ligand 1 (PSGL-1) (Homo sapiens (Human)). Put plainly: PSGL1 cleavage assay in PSGL1-BACE1 co-transfected 293T cells. In kind it is cell-based. The method, then:
(§1) 293T cells were plated in 96-well plates at 40,000 cells/well, incubated overnight at 37° C. and 5% CO2. Next day, cells were co-transfected with NRG1-BACE1 plasmids or PSGL1-BACE1 plasmids using Lipofectamine2000, as describe previously. Six hours after transfection, the reagents were removed and media containing the different compounds at various concentrations were loaded into each well.
(§2) After overnight incubation with the compounds, 20 μL of media were removed and added to a new plate. Then, 200 μl of reaction solution (0.1 M glycine, pH 10.4, 1 mM MgCl2, 1 mM ZnCl2 containing 1 mg/ml 4-nitrophenyl phosphate disodium salt hexahydrate, Sigma S0942) were loaded into each well of the plate. The absorbance was read at 405 nm for 60 min in 30 min intervals in a SpectraMax M5.
(§3) These compounds were diluted to 10 mM in DMSO. This solution was diluted to 20, 10, 2, 1, 0.2 and 0.02 μM in DMEM high Glucose containing 10% of FBS and 1% of Penicillin-Streptomycin containing 0.2% DMSO.

The test system of series [2] is neuregulin 1 (NRG-1) (Homo sapiens (Human)). Put plainly: NRG1 cleavage assay in NRG1-BACE1 co-transfected 293T cells. In kind it is cell-based. How it is done:
as §1, §2, §3

Series [3] in a line: pharmacokinetic study in rats. Format: in vivo. Particulars: wildtype Sprague-Dawley rats, 30 mg/kg orally, at 2 hours.
The nature of a further series: PAMPA. In kind it is in vitro ADME.
Series [4] relates to CHO-7W cells (stably transfected with human amyloid precursor protein wildtype). As to the kind of experiment: CHO-7W cell assay (AlphaLISA of media). Format: cell-based, Chinese hamster. As to conditions: treatment for 24 hours. How it is done:
For the assay, 50 μL of CHO-7W cells were added to each well at 4×10^5 cells/mL. Then, 50 μL of inhibitor, prepared for tested concentrations, were added to appropriated wells and incubated for 24 hours at 37° C. Afterwards, media from each well is collected and assayed using an AlphaLISA assay for respective analytes.
On the technique in general: Alpha assays give light when donor and acceptor beads are brought close together.

For series [5], the system named is BACE cleavage of APP. Put plainly: pilot study in AD model mice. Format: in vivo. As to conditions: orally 30 mg/kg/day for 10 days.
The target in the next series is Cathepsin D (CatD) (Homo sapiens (Human), UniProt P07339). Put plainly: Cathepsin-D assay. Format: biochemical. The method, then: For the assay, 4 μL of assay buffer was added to each well, followed by 2 μL of Cathepsin D (CatD) diluted in assay buffer to 5 ng/μL. Then, 2 μL of inhibitor, prepared to get a testing concentration of 20 μM, were added to appropriated wells and incubated for 30 minutes at room temperature. Afterwards, 2 μL of CatD substrate, diluted to 50 μM in assay buffer, were added to each well, after which the signal generated was read every 30 minutes at 25° C. for 1 hr. Signals shown in FIG. 6 are representative of readings at 1 hr.

A further series can be described thus: pharmacokinetics in mice. Format: in vivo.
Series [6] concerns BACE cleavage of APP. As to the kind of experiment: pharmacodynamic pilot study in rats (CSF and brain tissue). Format: in vivo, Sprague-Dawley rats. Particulars: 30 mg/kg orally.
For another series, the target named is BACE-1 (Homo sapiens (Human), UniProt P56817). Put plainly: cell-free BACE enzyme assay with P5-P5′ substrate. In kind it is biochemical. How it is done: For the assay, 4 μL of assay buffer was added to each well, followed by 2 μL of BACE-1 diluted in assay buffer to 7.5 ng/μL. Then, 2 μL of inhibitor, at concentrations along an 11 pt. two-fold dilution series starting at 0.5 μM, were added to appropriate wells and incubated for 30 minutes at room temperature. Afterwards, 2 μL of P5-P5′ BACE-1 substrate, diluted to 50 μM in assay buffer, were added to each well, after which the signal generated was read every 30 minutes at 25° C. for 2 hr.

Several values for one entry are separate records, joined by “and”; a condition that tells them apart may be missing. Equal entries are not always repeated. Where two headings read alike, the source gives them in different places.

Chain of BACE-1 (P56817 46-501): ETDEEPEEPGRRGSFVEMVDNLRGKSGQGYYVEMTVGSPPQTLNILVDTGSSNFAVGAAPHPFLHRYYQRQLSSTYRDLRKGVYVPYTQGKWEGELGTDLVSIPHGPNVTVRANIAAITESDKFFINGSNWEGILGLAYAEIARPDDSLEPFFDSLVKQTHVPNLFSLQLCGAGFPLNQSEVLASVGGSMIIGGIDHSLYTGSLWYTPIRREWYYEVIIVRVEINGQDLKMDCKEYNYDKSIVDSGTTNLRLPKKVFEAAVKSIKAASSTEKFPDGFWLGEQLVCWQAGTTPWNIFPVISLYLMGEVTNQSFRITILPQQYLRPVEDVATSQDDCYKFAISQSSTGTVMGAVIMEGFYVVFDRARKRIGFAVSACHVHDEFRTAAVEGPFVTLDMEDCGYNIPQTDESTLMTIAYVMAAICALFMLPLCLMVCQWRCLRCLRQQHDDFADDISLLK
Chain of Cathepsin D (CatD) (P07339 65-412, species assumed): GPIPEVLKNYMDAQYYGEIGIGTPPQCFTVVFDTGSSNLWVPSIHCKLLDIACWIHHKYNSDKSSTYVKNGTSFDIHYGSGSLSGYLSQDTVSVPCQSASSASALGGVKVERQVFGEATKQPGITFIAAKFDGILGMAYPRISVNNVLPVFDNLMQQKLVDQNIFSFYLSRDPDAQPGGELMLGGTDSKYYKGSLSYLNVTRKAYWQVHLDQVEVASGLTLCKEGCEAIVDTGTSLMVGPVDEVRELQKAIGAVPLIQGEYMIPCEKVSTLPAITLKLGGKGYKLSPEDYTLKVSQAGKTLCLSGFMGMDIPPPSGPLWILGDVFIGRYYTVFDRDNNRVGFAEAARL

A word on the IC50: it is the point on the concentration scale where inhibition reaches its midpoint. In the case of `Cc1cc(C2(c3cccc(-c4cncnc4)c3)N=C(N)N(C)C2=O)ccc1OC(F)F` (racemic) [FAH-65, 2-amino-5-(4-(difluoromethoxy)-3-methylphenyl)-3-methyl-5-(3-(pyrimidin-5-yl)phenyl)-3,5-dihydro-4H-imidazol-4-one], the “inhibitory activity in cleavage of p-selectin glycoprotein ligand 1 (PSGL-1)” value in series [1] was “little cleavage”. In series [2], the “inhibitory activity in cleavage of neuregulin 1 (NRG-1)” value was “little cleavage”. In series [3], this compound returned a brain peak of 182 ng/g. Also, in “PAMPA”, the PAMPA is 0.44 and 0.45 and 0.46 and 0.47 and 0.52 and 0.48 and 0.49. Also, in [4], the “amyloid-beta (Aβ)” value is recorded as “significantly decreased” and the “soluble amyloid precursor protein beta (sAPPβ)” value is on record as “significantly decreased”. In the series on BACE cleavage of APP [5], the “BACE/γ-secretase product Aβ” value was “trend to decrease” and the “decrease of APP-derived BACE cleavage product βCTF (beta C-terminal fragment)” value is given as “significantly”. The IC50 against Cathepsin D (CatD) was determined as 47100 nM. In “pharmacokinetics in mice”, the brain penetrance entry is “brain-penetrant”. Besides, the peak in brain in the series “pharmacokinetics in mice” (oral delivery at 30 mg/kg, one hour post-dosing) was found to be 74 ng/g. The “sAPPβ in CSF” value in the series with BACE cleavage of APP [6] (at 3 and 6 hours, vs untreated controls) is reported as “reduced”. The Aβ1-40 levels result in the series on BACE cleavage of APP [6] (compared to control, decrease persisted to 24 hours) is recorded as “decreased”. On BACE-1 (cell-free BACE assay), this compound showed an IC50 of 22 nM. At BACE-1 (cell-free, several replicate values per cell, some flagged 's' (flag not defined), read-out: BACE1 IC50), the IC50 was 5 to 10 nM and 19 nM and 11.2 nM and 16 nM and 11 nM and 15 nM and 24 nM and 14 nM.
